Source: patent US11267826B2, “Penicillin-binding protein inhibitors” (priority 2017, dated 2022)
Read-outs that look alike come from different tables or passages of the source.

What was measured:
[1] = system: hyper-permeable E. coli 901C; test: Broth microdilution MIC assay, hyper-permeable E. coli; assay type: cell-based; conditions: for MIC: Escherichia coli, read-out: E. coli 901C MIC
Method: (§1) To determine the ability of test compounds to potentiate the inhibition of the growth of bacterial strains, classic cell based broth microdilution MIC assays were employed. MIC assays are performed according to CLSI methods except where otherwise noted (CLSI, 2011 and CLSI, 2009). The reference strain S. aureus ATCC 29213 and the hyper-permeable E. coli 901C were used to determine the ability of the PBP compounds to inhibit bacterial growth. Briefly, cryo-preserved bacterial cultures of clinical strains are streaked for isolation on appropriate agar medium, in this case Mueller Hinton II agar. Following incubation to allow formation of colonies these plates are sealed with parafilm and stored refrigerated for up to two weeks. For preparation of assay inocula and to ensure low variability, at least 5 colonies are picked from the agar plates with an inoculating loop and aseptically transferred to a culture tube containing 3 mL of Mueller-Hinton Broth (supplemented with divalent cations to required levels based on Manufacturers' certification). The broth culture is grown for 3-5 hours at 37° C. with shaking at 200 rpm. Meanwhile, 2-fold serial dilutions of test compounds are conducted in a 96 well plate with a final volume of 75 μL per well at 2-fold the final desired concentration. After the dilution plates are set up the growing cultures are then diluted in a cuvette containing MH II broth and the optical density is measured at 600 nm. Inocula are diluted such that 75 μL of this culture in Mueller-Hinton Broth results in a starting bacterial concentration of 5×10^5 CFU/mL when added to the dilution plates. The plates are incubated 16-20 hours at 37° C. The MIC is read visually as the lowest concentration well with no bacterial growth.

S. aureus ATCC 29213 = test: Broth microdilution MIC assay, S. aureus; assay type: cell-based; conditions: for MIC: Staphylococcus aureus
Method: as §1

[2] = ATCC29213, broth microdilution, 16-20 hours at 37° C., read-out: S. aureus 29213 MIC
[3] = broth microdilution, 16-20 hours at 37° C.

Row | SMILES | MIC [1] [µg/mL] | MIC (S. aureus ATCC 29213; [2]) [µg/mL] | further results
1 | CO/N=C(\C(=O)N[C@H]1Cc2cccc(C(=O)O)c2OB1O)c1nsc(N)n1 [Example 2, (R,Z)-3-(2-(5-amino-1,2,4-thiadiazol-3-yl)-2-(methoxyimino)acetamido)-2-hydroxy-3,4-dihydro-2H-benzo[e][1,2]oxaborinine-8-carboxylic Acid] | < 64 | > 128 | –
2 | Cc1cc(C)n2c1C=C1C=CC(CCC(=O)NCCON=C(C(=O)N[C@H]3Cc4cccc(C(=O)O)c4OB3O)c3csc(N)n3)=[N+]1[B-]2(F)F [Example 125, (R)-3-(2-(2-aminothiazol-4-yl)-2-((2-(3-(5,5-difluoro-7,9-dimethyl-5H-4λ^4,5λ^4-dipyrrolo[1,2-c:2′,1′-f][1,3,2]diazaborinin-3-yl)propanamido)ethoxy)imino)acetamido)-2-hydroxy-3,4-dihydro-2H-benzo[e][1,2]oxaborinine-8-carboxylic Acid] | – | – | E. coli 901C MIC [1, 3]: A (A represents an MIC >128 μg/mL); S. aureus 29213 MIC (S. aureus ATCC 29213; [3]): A (A represents an MIC >128 μg/mL)
3 | Nc1nc(C(=NO)C(=O)NC2Cc3cccc(C(=O)O)c3OB2O)ns1 (stereo in doubt) [Example 20, (S,Z)-3-(2-(5-amino-1,2,4-thiadiazol-3-yl)-2-(hydroxyimino)acetamido)-2-hydroxy-3,4-dihydro-2H-benzo[e][1,2]oxaborinine-8-carboxylic Acid] | > 128 | > 128 | –
4 | O=C(N[C@H]1Cc2cccc(C(=O)O)c2OB1O)/C(=N\O)c1csc(NCCO)n1 [Example 102, (R,Z)-2-hydroxy-3-(2-(2-((2-hydroxyethyl)amino)thiazol-4-yl)-2-(hydroxyimino)acetamido)-3,4-dihydro-2H-benzo[e][1,2]oxaborinine-8-carboxylic Acid] | > 128 | > 128 | –
5 | O=C(N[C@H]1Cc2cccc(C(=O)O)c2OB1O)/C(=N\O)c1csc(NCc2ccccn2)n1 [Example 121, (R,Z)-2-hydroxy-3-(2-(hydroxyimino)-2-(2-((pyridin-2-ylmethyl)amino)thiazol-4-yl)acetamido)-3,4-dihydro-2H-benzo[e][1,2]oxaborinine-8-carboxylic Acid] | > 128 | < 64 | –
6 | Nc1nc(/C(=N/O)C(=O)N[C@H]2Cc3cccc(C(=O)O)c3OB2O)ns1 [Example 19, (R,Z)-3-(2-(5-amino-1,2,4-thiadiazol-3-yl)-2-(hydroxyimino)acetamido)-2-hydroxy-3,4-dihydro-2H-benzo[e][1,2]oxaborinine-8-carboxylic Acid] | > 128 | 64 to 128 | –
7 | Nc1nc(/C(=N/O)C(=O)N[C@H]2Cc3ccc(/C=C/C(=O)O)c(C(=O)O)c3OB2O)cs1 [Example 27, (R)-3-((Z)-2-(2-aminothiazol-4-yl)-2-(hydroxyimino)acetamido)-7-((E)-2-carboxyvinyl)-2-hydroxy-3,4-dihydro-2H-benzo[e][1,2]oxaborinine-8-carboxylic Acid] | 64 to 128 | > 128 | –
8 | NCCO/N=C(\C(=O)N[C@H]1Cc2cccc(C(=O)O)c2OB1O)c1csc(N)n1 [Example 105, (R,Z)-3-(2-((2-aminoethoxy)imino)-2-(2-aminothiazol-4-yl)acetamido)-2-hydroxy-3,4-dihydro-2H-benzo[e][1,2]oxaborinine-8-carboxylic Acid] | < 64 | > 128 | –
9 | Nc1nc(/C(=N/O)C(=O)N[C@H]2Cc3cc(O)cc(C(=O)O)c3OB2O)cs1 [Example 43, (R,Z)-3-(2-(2-aminothiazol-4-yl)-2-(hydroxyimino)acetamido)-2,6-dihydroxy-3,4-dihydro-2H-benzo[e][1,2]oxaborinine-8-carboxylic Acid] | 64 to 128 | < 64 | –
10 | CC(O/N=C(\C(=O)N[C@H]1Cc2cccc(C(=O)O)c2OB1O)c1csc(N)n1)C(=O)NCCNCCN (stereo partly drawn) [Example 104, (3R)-3-((Z)-12-amino-2-(2-aminothiazol-4-yl)-5-methyl-6-oxo-4-oxa-3,7,10-triazadodec-2-enamido)-2-hydroxy-3,4-dihydro-2H-benzo[e][1,2]oxaborinine-8-carboxylic Acid] | < 64 | – | MIC (S. aureus ATCC 29213; ATCC29213, read-out: S. aureus 29213 MIC): > 128 µg/mL
11 | Nc1nc(/C(=N/OCC(F)(F)F)C(=O)N[C@H]2Cc3cccc(C(=O)O)c3OB2O)cs1 [Example 117, (R,Z)-3-(2-(2-aminothiazol-4-yl)-2-((2,2,2-trifluoroethoxy)imino)acetamido)-2-hydroxy-3,4-dihydro-2H-benzo[e][1,2]oxaborinine-8-carboxylic Acid] | < 64 | 64 to 128 | –
12 | Nc1nc(/C(=N/OCCCBr)C(=O)N[C@H]2Cc3cccc(C(=O)O)c3OB2O)cs1 [Example 116, (R,Z)-3-(2-(2-aminothiazol-4-yl)-2-((3-bromopropoxy)imino)acetamido)-2-hydroxy-3,4-dihydro-2H-benzo[e][1,2]oxaborinine-8-carboxylic Acid] | > 128 | > 128 | –
13 | CCNc1nc(/C(=N/O)C(=O)N[C@H]2Cc3cccc(C(=O)O)c3OB2O)cs1 [Example 107, (R,Z)-3-(2-(2-(ethylamino)thiazol-4-yl)-2-(hydroxyimino)acetamido)-2-hydroxy-3,4-dihydro-2H-benzo[e][1,2]oxaborinine-8-carboxylic Acid] | > 128 | > 128 | –
14 | Nc1nc(C(=CCCO)C(=O)N[C@H]2Cc3cccc(C(=O)O)c3OB2O)cs1 [Example 85, (R)-3-(2-(2-aminothiazol-4-yl)-5-hydroxypent-2-enamido)-2-hydroxy-3,4-dihydro-2H-benzo[e][1,2]oxaborinine-8-carboxylic Acid] | 64 to 128 | 64 to 128 | –
15 | C[N+]1(Cc2cc3c(c(C(=O)[O-])c2)OB(O)[C@@H](NC(=O)/C(=N\O)c2csc(N)n2)C3)CCCC1 [Example 34, (R,Z)-3-(2-(2-aminothiazol-4-yl)-2-(hydroxyimino)acetamido)-2-hydroxy-6-((1-methylpyrrolidin-1-ium-1-yl)methyl)-3,4-dihydro-2H-benzo[e][1,2]oxaborinine-8-carboxylate] | – | < 64 | –
16 | Nc1nc(/C(=N/O)C(=O)N[C@H]2Cc3c(F)c(F)cc(C(=O)O)c3OB2O)cs1 [Example 40, (R,Z)-3-(2-(2-aminothiazol-4-yl)-2-(hydroxyimino)acetamido)-5,6-difluoro-2-hydroxy-3,4-dihydro-2H-benzo[e][1,2]oxaborinine-8-carboxylic Acid] | > 128 | < 64 | –
17 | COC(=O)CCc1cc2c(c(C(=O)O)c1)OB(O)[C@@H](NC(=O)/C(=N\O)c1csc(N)n1)C2 [Example 36, (R,Z)-3-(2-(2-aminothiazol-4-yl)-2-(hydroxyimino)acetamido)-2-hydroxy-6-(3-methoxy-3-oxopropyl)-3,4-dihydro-2H-benzo[e][1,2]oxaborinine-8-carboxylic Acid] | – | < 64 | –
18 | O=C(N[C@H]1Cc2cccc(C(=O)O)c2OB1O)/C(=N\O)c1csc(NCCc2ccccn2)n1 [Example 122, (R,Z)-2-hydroxy-3-(2-(hydroxyimino)-2-(2-((2-(pyridin-2-yl)ethyl)amino)thiazol-4-yl)acetamido)-3,4-dihydro-2H-benzo[e][1,2]oxaborinine-8-carboxylic Acid] | > 128 | < 64 | –
19 | CN(CC(=O)O)Cc1ccc2c(c1C(=O)O)OB(O)[C@@H](NC(=O)/C(=N\O)c1csc(N)n1)C2 [Example 31, (R,Z)-3-(2-(2-aminothiazol-4-yl)-2-(hydroxyimino)acetamido)-7-(((carboxymethyl)(methyl)amino)methyl)-2-hydroxy-3,4-dihydro-2H-benzo[e][1,2]oxaborinine-8-carboxylic Acid] | – | > 128 | –
20 | C[N+]1(Cc2ccc3c(c2C(=O)[O-])OB(O)[C@@H](NC(=O)/C(=N\O)c2csc(N)n2)C3)CCC(CO)CC1 (stereo partly drawn) [Example 30, (R,Z)-3-(2-(2-aminothiazol-4-yl)-2-(hydroxyimino)acetamido)-2-hydroxy-7-((4-(hydroxymethyl)-1-methylpiperidin-1-ium-1-yl)methyl)-3,4-dihydro-2H-benzo[e][1,2]oxaborinine-8-carboxylate] | – | < 64 | –
21 | Nc1nc(/C(=N/O)C(=O)N[C@H]2Cc3cc(C(=O)O)cc(C(=O)O)c3OB2O)cs1 [Example 38, (R,Z)-3-(2-(2-aminothiazol-4-yl)-2-(hydroxyimino)acetamido)-2-hydroxy-3,4-dihydro-2H-benzo[e][1,2]oxaborinine-6,8-dicarboxylic Acid] | – | > 128 | –
22 | C[N+]1(Cc2ccc3c(c2C(=O)[O-])OB(O)[C@@H](NC(=O)/C(=N\O)c2csc(N)n2)C3)CCCC1 [Example 26, (R,Z)-3-(2-(2-aminothiazol-4-yl)-2-(hydroxyimino)acetamido)-2-hydroxy-7-((1-methylpyrrolidin-1-ium-1-yl)methyl)-3,4-dihydro-2H-benzo[e][1,2]oxaborinine-8-carboxylate] | – | < 64 | –
23 | Nc1nc(/C(=N/O)C(=O)N[C@H]2Cc3ccc(CN4CCC(CO)CC4)c(C(=O)O)c3OB2O)cs1 [Example 29, (R,Z)-3-(2-(2-aminothiazol-4-yl)-2-(hydroxyimino)acetamido)-2-hydroxy-7-((4-(hydroxymethyl)piperidin-1-yl)methyl)-3,4-dihydro-2H-benzo[e][1,2]oxaborinine-8-carboxylic Acid] | – | > 128 | –
